Structures can show the parent of a compound that is named as a salt.

Data on eleven molecules can be found in patent US10336725B2, “Chemical compounds” (AstraZeneca AB, priority 2014, dated 2019).

This experiment has as its target T1, Sodium Channel ENaC (Homo sapiens, UniProt P37088+P51168+P51170).
T1 construct: Human primary bronchial epithelial cells differentiated at air-liquid interface (ALI); host or cells: Human primary bronchial epithelial cells differentiated at air-liquid interface
T1 sequence (P37088 1-669): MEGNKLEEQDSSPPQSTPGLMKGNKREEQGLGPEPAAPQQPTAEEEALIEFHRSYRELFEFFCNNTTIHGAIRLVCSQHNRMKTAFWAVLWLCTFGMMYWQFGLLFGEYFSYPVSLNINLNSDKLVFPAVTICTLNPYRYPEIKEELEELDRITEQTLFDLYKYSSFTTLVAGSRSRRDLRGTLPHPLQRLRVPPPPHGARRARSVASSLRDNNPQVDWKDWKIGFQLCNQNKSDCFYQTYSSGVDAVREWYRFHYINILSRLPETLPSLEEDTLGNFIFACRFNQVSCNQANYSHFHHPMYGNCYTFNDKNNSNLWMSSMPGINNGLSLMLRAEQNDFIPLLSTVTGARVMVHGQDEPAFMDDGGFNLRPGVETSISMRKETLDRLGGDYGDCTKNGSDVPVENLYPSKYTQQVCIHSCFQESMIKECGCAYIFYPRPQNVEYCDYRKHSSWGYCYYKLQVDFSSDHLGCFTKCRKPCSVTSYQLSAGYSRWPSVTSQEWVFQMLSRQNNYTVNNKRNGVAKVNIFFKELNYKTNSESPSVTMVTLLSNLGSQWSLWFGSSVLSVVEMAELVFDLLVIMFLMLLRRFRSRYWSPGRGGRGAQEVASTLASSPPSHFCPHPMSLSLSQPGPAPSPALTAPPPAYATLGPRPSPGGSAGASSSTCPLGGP
T1 sequence (P51168 1-640): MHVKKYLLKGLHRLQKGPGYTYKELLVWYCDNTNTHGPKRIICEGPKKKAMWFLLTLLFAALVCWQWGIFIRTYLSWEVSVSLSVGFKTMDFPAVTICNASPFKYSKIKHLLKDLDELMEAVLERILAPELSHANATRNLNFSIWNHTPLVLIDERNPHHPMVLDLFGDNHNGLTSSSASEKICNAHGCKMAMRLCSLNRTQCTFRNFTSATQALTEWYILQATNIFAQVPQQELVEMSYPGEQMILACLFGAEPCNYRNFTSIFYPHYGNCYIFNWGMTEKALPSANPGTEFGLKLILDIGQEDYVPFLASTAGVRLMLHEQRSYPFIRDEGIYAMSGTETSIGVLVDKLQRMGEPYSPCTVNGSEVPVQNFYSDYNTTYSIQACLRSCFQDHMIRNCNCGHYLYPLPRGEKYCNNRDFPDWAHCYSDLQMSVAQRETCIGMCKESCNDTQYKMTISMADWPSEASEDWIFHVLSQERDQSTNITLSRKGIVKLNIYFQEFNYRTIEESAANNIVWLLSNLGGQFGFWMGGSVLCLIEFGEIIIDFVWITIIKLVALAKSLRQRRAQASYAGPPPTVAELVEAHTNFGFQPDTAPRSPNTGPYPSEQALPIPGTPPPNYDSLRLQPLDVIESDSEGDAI
T1 sequence (P51170 1-649): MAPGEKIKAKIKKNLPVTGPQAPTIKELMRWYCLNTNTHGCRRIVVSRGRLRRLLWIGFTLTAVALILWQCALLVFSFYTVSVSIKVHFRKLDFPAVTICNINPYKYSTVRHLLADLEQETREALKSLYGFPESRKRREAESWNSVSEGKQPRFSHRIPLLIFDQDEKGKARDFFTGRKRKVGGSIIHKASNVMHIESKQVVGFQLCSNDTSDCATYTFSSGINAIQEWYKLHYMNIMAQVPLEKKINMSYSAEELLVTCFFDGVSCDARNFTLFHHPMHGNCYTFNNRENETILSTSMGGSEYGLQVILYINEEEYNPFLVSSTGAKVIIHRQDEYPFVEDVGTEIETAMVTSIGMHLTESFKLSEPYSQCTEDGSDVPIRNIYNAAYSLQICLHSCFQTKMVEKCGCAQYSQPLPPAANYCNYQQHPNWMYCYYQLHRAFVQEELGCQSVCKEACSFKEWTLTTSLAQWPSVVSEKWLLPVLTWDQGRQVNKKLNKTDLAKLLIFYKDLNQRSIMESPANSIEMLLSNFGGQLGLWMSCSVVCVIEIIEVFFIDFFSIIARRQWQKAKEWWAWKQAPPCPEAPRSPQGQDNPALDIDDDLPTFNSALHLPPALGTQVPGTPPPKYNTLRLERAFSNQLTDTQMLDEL
As to the kind of experiment: Sodium Channel ENaC Ussing Chamber Test (short circuit current). It counts as cell-based. The note with it: human primary bronchial epithelial cells at air-liquid interface; inhibition of short circuit current; compounds added to the apical side. The protocol: Sodium Channel ENaC Ussing Chamber Test
Human primary bronchial epithelial cells differentiated at air-liquid interface (ALI) on snapwell permeable supports (MatTek Corporation, MA, USA, cat no AIR-100-SNP) were maintained at ALI culture in a humidified incubator at 37° C. and 5% CO2. Basolateral medium (MatTek Corporation, MA, USA cat no AIR-100-MM-ASY) was changed every second day. Mucus or liquid formed on the apical side was gently aspirated every second day to maintain viability and performance of the cells.
The transepithelial voltage between the luminal/apical and basolateral membrane were measured in the ussing chamber consisted of vertical, in-house manufactured ussing chambers, DVC-1000 V/C clamps with preamplifiers (World Precision Instruments), electrode kits (EK1, World Precision Instruments), Power Lab with Chart5 software, water bath with external circulation and carbogen gas distribution and regulation system. Electrodes used in the set up were casted manually using 4% agarose in 0.9% sterile NaCl according to the manufacturer's recommendation.
The ussing chambers were assembled with an empty snapwell membrane (Costar 3407) and electrodes contained in Kreb's buffer (SIGMA-ALDRICH cat no K3753) for one hour at 37° C. in presence of 95% oxygen and 5% carbon dioxide. After this equilibration step the system was compensated for fluid resistance and input offset.
The equilibrated chambers were reassembled with a snapwell containing ALI cells and after 20 minutes stabilisation cumulative doses of the compounds were added to the apical side of the membrane. After the final dose 10 μM Benzamil was added to reach maximum.
All test compounds, including the reference compound, were diluted from 10 mM stocks in 100% DMSO and added to opaque 96-well plates (Greiner, Cat No. 651201). Dilution series of 12 doses were prepared in DMSO, starting with 3 μM followed by 10 times dilution steps.
Chart5 for Windows software was used to measure the value of the short circuit current after each compound addition. The data was transferred into Excel and analysed using IDBS XLfit® 5.2 (ID Business Solutions Ltd). The molar concentration of test or reference compound producing 50% inhibition (curve IC50) was derived by fitting data to a 4-parameter logistic function of the form: y=(A+((B−A)/(1+(((10^C)/x)^D))))
A The bottom plateau of the curve, i.e. the final minimum y value
B The top of the plateau of the curve i.e. the final maximum y value
C The log10 x value at a y value of 50%.

The molecule `Cc1ccccc1C[C@H](CNCC1CCN(C(=O)CCNC[C@H](O)[C@@H](O)[C@H](O)CO)CC1)CNC(=O)c1nc(Cl)c(N)nc1N` [Example 1, 3,5-diamino-6-chloro-N—((R)-2-(2-methylbenzyl)-3-(((1-(3-(((2S,3R,4R)-2,3,4,5-tetrahydroxypentyl)amino)propanoyl)piperidin-4-yl)methyl)amino)propyl)pyrazine-2-carboxamide] showed an IC50 of 0.316 nM. That is a sub-nanomolar value.
On to `CCCCCCN(CCNC(=O)c1ccc(CNC[C@H](CNC(=O)c2nc(Cl)c(N)nc2N)Cc2ccccc2C)cc1)C[C@H](O)[C@@H](O)[C@H](O)CO` [Example 2, 3,5-diamino-6-chloro-N—((R)-3-((4-((2-(hexyl((2S,3R,4R)-2,3,4,5-tetrahydroxypentyl)amino)ethyl)carbamoyl)benzyl)amino)-2-(2-methylbenzyl)propyl)pyrazine-2-carboxamide], for which it took 2.51 nM to reach half-maximal inhibition (IC50).
Take `CCCCCCN(CCNC(=O)N1CCC(CNC[C@H](CNC(=O)c2nc(Cl)c(N)nc2N)Cc2ccccc2C)CC1)C[C@H](O)[C@@H](O)[C@H](O)[C@H](O)CO` [Example 3, 3,5-diamino-6-chloro-N—((R)-3-((1-(2-(hexyl((2S,3R,4R,5R)-2,3,4,5,6-pentahydroxyhexyl)amino)ethylcarbamoyl)piperidin-4-yl)methylamino)-2-(2-methylbenzyl)propyl)pyrazine-2-carboxamide]: the IC50 is 0.0794 nM.
Molecule `CCCCCCN(CCC(=O)N1CCC(CNC[C@H](CNC(=O)c2nc(Cl)c(N)nc2N)Cc2ccccc2C)CC1)C[C@H](O)[C@@H](O)[C@H](O)[C@H](O)CO` [Example 4, 3,5-diamino-6-chloro-N—((R)-3-((1-(3-(hexyl((2S,3R,4R,5R)-2,3,4,5,6-pentahydroxyhexyl)amino)propanoyl)piperidin-4-yl)methylamino)-2-(2-methylbenzyl)propyl)pyrazine-2-carboxamide] showed a half-maximal inhibitory concentration (IC50) of 0.631 nM.
The molecule `CCCCCCN(CCC(=O)N1CCC(CNC[C@H](CNC(=O)c2nc(Cl)c(N)nc2N)Cc2ccccc2C)CC1)C[C@H](O)[C@@H](O)[C@H](O)CO` [Example 5, 3,5-diamino-6-chloro-N—((R)-3-((1-(3-(hexyl((2S,3R,4R)-2,3,4,5-tetrahydroxypentyl)amino)propanoyl)piperidin-4-yl)methylamino)-2-(2-methylbenzyl)propyl)pyrazine-2-carboxamide] showed a concentration for half-maximal inhibition (IC50) of 1 nM. Compared with the last molecule, the IC50 is about 1.6-fold higher.
In turn, `CCCCCCN(CCCC(=O)N1CCC(CNC[C@H](CNC(=O)c2nc(Cl)c(N)nc2N)Cc2ccccc2C)CC1)C[C@H](O)[C@@H](O)[C@H](O)[C@H](O)CO` [Example 6, 3,5-diamino-6-chloro-N—((R)-3-((1-(4-(hexyl((2S,3R,4R,5R)-2,3,4,5,6-pentahydroxyhexyl)amino)butanoyl)piperidin-4-yl)methylamino)-2-(2-methylbenzyl)propyl)pyrazine-2-carboxamide] showed an IC50 of 0.316 nM.
To `Cc1ccccc1C[C@H](CNCC1CCN(C(=O)CCNC[C@H](O)[C@@H](O)[C@H](O)[C@H](O)CO)CC1)CNC(=O)c1nc(Cl)c(N)nc1N` [Example 7, 3,5-diamino-6-chloro-N—((R)-2-(2-methylbenzyl)-3-((1-(3-((2S,3R,4R,5R)-2,3,4,5,6-pentahydroxyhexylamino)propanoyl)piperidin-4-yl)methylamino)propyl)pyrazine-2-carboxamide] belongs 1.26 nM.
The molecule `CCCCCCN(CCC(=O)N1CCC(CNC[C@H](CNC(=O)c2nc(Cl)c(N)nc2N)Cc2ccccc2C)CC1)C[C@@H](O)[C@@H](O)[C@H](O)[C@H](O)CO` [Example 8, 3,5-diamino-6-chloro-N—((R)-3-((1-(3-(hexyl((2R,3R,4R,5R)-2,3,4,5,6-pentahydroxyhexyl)amino)propanoyl)piperidin-4-yl)methylamino)-2-(2-methylbenzyl)propyl)pyrazine-2-carboxamide] gave an IC50 of 0.316 nM.
`CCCCCCN(CCNC(=O)c1ccc(CNC[C@H](CNC(=O)c2nc(Cl)c(N)nc2N)Cc2ccccc2C)cc1)C[C@@H](O)[C@@H](O)[C@H](O)[C@H](O)CO` [Example 9, 3,5-diamino-6-chloro-N—((R)-3-((4-((2-(hexyl((2R,3R,4R,5R)-2,3,4,5,6-pentahydroxyhexyl)amino)ethyl)carbamoyl)benzyl)amino)-2-(2-methylbenzyl)propyl)pyrazine-2-carboxamide Dihydrochloride] had a 50% inhibitory concentration (IC50) of 2.51 nM.
`CCCCCCN(CCNC(=O)c1ccc(CNC[C@H](CNC(=O)c2nc(Cl)c(N)nc2N)Cc2ccccc2C)cc1)C[C@H](O)[C@@H](O)[C@H](O)[C@H](O)CO` [Example 10, 3,5-diamino-6-chloro-N—((R)-3-((4-((2-(hexyl((2S,3R,4R,5R)-2,3,4,5,6-pentahydroxyhexyl)amino)ethyl)carbamoyl)benzyl)amino)-2-(2-methylbenzyl)propyl)pyrazine-2-carboxamide]: the IC50 is 2.51 nM.
As to `CCCCCCN(CCNC(=O)Oc1ccc(CNC[C@H](CNC(=O)c2nc(Cl)c(N)nc2N)Cc2ccccc2C)cc1)C[C@H](O)[C@@H](O)[C@H](O)[C@H](O)CO` [Example 11, 4-(((R)-3-(3,5-diamino-6-chloropyrazine-2-carboxamido)-2-(2-methylbenzyl)propylamino)methyl)phenyl 2-(hexyl((2S,3R,4R,5R)-2,3,4,5,6-pentahydroxyhexyl)amino)ethylcarbamate], the IC50 is 1.58 nM. Compared with the last molecule, the IC50 is about 1.6-fold lower.

The IC50 is the concentration at which inhibition is half-maximal. A higher IC50 goes with weaker potency.
